Where two headings read alike, the source gives them in different places. Positions of bridges follow the written chain, without caps; N, C: chain ends. Non-standard residues stand in square brackets, D forms with d. Residues, ends and D or L forms follow the SMILES beside them. 1Nal = N[C@@H](Cc1cccc2ccccc12)C(=O)O
Columns and labels:
Experiment in all cases: cell-based
[1] = target: T1, hNav1.3 (Homo sapiens, UniProt Q9NY46); type: cell-based; settings: for IC50: Nav1.3 Use IC50
[2] = target: T2, hNav1.5 (Homo sapiens, UniProt Q14524); settings: IonWorks Quattro; clamped to −110 mV, depolarized to −10 mV, 5 min after compound; n=2; read-out: IWQ Use Nav1.5
[3] = target: T3, hNav1.7 (Homo sapiens, UniProt Q15858); settings: Nav1.7 Use IC50
[4] = target: T1, hNav1.3; settings: IonWorks Quattro; clamped to −110 mV, depolarized to −10 mV, 5 min after compound; n=2; read-out: IWQ Use Nav1.3
[5] = target: T3, hNav1.7; type: cell-based; settings: IonWorks Quattro; clamped to −110 mV, depolarized to −10 mV, 5 min after compound; n=2; read-out: IWQ Use Nav1.7
[6] = target: T2, hNav1.5

T3 sequence (Q15858 whole entry, looked up): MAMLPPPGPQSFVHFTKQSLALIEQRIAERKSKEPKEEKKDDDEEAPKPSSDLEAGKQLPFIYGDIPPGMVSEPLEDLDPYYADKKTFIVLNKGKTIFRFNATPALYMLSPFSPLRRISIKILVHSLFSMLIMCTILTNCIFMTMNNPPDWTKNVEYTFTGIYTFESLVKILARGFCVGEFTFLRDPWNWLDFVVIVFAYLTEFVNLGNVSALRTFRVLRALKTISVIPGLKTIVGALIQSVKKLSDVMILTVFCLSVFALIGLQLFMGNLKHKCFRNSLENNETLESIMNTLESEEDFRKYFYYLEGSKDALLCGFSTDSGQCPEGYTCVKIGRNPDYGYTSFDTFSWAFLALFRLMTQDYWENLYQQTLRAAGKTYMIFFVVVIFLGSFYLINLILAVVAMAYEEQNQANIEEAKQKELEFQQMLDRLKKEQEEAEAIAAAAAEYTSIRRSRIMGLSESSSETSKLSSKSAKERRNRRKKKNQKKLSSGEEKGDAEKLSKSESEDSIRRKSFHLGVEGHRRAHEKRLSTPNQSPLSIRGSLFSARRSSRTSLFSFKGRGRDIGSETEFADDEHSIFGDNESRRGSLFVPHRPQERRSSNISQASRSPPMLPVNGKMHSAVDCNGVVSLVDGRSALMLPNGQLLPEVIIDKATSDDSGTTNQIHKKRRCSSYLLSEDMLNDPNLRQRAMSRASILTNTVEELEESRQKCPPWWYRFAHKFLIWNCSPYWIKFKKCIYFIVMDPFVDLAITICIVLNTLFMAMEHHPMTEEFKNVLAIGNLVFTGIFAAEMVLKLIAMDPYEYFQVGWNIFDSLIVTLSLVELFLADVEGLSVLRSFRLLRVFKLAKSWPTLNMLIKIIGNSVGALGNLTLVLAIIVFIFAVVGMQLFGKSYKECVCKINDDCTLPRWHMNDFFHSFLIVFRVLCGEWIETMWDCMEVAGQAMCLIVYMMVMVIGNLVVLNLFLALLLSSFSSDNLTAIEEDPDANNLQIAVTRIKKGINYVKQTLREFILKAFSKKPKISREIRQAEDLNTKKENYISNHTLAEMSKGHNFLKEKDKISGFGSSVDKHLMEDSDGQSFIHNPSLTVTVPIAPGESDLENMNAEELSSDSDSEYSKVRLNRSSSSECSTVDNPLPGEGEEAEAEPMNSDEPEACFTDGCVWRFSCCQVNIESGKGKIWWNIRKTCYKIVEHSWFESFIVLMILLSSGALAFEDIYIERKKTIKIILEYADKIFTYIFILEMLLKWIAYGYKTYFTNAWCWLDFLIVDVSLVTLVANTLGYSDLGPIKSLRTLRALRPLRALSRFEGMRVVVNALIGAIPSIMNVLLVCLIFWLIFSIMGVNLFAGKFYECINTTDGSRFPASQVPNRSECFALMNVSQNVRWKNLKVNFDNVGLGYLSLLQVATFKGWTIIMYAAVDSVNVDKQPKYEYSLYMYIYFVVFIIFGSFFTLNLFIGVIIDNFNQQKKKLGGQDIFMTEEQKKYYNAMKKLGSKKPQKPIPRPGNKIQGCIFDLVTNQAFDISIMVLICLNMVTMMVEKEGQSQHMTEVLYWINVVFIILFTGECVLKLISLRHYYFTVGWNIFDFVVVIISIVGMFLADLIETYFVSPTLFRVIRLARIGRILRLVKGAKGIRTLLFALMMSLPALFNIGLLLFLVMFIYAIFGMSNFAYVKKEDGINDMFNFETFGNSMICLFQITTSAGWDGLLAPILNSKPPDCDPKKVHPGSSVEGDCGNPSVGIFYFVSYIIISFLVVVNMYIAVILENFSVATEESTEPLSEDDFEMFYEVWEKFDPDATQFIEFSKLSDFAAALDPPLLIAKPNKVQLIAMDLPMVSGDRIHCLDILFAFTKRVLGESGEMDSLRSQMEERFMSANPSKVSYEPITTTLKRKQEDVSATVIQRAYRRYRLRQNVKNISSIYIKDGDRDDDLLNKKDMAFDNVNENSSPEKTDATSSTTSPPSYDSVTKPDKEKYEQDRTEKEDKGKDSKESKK
T1 sequence (Q9NY46 whole entry, looked up): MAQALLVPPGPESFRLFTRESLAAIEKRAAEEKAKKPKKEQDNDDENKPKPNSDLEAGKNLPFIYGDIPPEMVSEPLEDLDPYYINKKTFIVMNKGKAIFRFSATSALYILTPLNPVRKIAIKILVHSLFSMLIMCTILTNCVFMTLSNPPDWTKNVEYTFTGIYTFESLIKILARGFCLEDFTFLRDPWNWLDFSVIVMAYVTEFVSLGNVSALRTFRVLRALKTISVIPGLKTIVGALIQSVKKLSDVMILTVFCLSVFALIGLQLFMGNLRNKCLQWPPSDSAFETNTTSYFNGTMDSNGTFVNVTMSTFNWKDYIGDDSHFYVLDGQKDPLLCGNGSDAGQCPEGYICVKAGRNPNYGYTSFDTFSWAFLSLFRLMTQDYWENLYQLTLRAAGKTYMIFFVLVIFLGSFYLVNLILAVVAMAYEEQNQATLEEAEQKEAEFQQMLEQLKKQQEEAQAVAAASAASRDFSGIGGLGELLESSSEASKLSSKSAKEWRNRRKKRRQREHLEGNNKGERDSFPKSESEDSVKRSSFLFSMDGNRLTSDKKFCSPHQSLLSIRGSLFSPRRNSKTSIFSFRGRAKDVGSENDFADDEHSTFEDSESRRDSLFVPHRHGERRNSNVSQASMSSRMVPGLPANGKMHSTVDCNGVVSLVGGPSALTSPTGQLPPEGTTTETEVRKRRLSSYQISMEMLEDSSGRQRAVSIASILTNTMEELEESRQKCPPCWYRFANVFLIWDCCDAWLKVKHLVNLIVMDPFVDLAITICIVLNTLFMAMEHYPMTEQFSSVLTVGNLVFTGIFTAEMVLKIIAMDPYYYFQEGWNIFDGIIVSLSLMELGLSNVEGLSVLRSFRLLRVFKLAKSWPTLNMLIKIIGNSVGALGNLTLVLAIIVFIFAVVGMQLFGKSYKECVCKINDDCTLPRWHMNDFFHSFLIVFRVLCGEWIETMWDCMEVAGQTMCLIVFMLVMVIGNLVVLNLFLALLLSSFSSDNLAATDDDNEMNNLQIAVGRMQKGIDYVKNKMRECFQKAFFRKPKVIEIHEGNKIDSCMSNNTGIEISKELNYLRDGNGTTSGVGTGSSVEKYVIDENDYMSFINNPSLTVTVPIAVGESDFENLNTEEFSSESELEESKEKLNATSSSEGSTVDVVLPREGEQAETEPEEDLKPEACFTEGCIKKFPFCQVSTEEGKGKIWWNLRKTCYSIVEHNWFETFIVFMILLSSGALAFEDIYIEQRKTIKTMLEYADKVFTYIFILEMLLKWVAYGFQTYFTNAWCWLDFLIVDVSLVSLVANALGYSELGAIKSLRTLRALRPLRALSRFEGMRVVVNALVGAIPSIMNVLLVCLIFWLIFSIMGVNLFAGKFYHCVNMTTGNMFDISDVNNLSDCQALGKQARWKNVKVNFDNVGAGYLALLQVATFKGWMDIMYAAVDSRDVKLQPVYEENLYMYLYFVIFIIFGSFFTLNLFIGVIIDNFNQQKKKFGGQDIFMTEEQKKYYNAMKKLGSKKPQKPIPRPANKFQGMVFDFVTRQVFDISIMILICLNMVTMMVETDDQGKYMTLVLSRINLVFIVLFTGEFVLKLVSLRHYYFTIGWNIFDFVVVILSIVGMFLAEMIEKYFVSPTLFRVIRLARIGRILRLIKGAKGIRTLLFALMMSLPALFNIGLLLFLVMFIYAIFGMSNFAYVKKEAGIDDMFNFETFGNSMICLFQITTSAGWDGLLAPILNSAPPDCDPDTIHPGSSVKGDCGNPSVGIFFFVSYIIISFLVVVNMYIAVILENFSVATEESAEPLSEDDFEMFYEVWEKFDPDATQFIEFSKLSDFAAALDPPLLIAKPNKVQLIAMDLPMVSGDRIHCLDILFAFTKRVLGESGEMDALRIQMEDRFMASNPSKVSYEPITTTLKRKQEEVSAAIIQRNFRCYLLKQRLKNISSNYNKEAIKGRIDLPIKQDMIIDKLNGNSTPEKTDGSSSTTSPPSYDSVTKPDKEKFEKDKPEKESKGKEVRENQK

Compound	IC50 [1] [nM]	IC50 [2] [nM]	IC50 [3] [nM]	IC50 [4] [nM]	IC50 [5] [nM]	potency against NaV1.3, in words [1]	IC50 [6] [nM]
CC[C@H](C)[C@@H]1NC(=O)[C@@H]2CSSC[C@@H]3NC(=O)[C@H](C(C)C)NC(=O)[C@H](CC(C)C)NC(=O)[C@H](CC(N)=O)NC(=O)[C@@H]4CCCN4C(=O)[C@H](CCCNC(=N)N)NC(=O)[C@H](CSSC[C@H](NC(=O)[C@@H](N)CC(=O)O)C(=O)N[C@@H](CC(C)C)C(=O)NCC(=O)N[C@@H](Cc4ccccc4)C(=O)N[C@@H](CC(C)C)C(=O)N[C@@H](CCCNC(=N)N)C(=O)N[C@@H](CCCCN)C(=O)N2)NC(=O)[C@H](CSSC[C@@H](C(=O)N[C@@H](CCCCN)C(=O)N[C@@H](Cc2ccc(O)cc2)C(=O)N[C@H](C(=O)N[C@@H](Cc2ccccc2)C(N)=O)C(C)C)NC(=O)[C@H](Cc2c[nH]c4ccccc24)NC(=O)[C@H](CCCCN)NC(=O)[C@H](Cc2cnc[nH]2)NC(=O)[C@H]([C@@H](C)O)NC(=O)[C@H](CCCNC(=N)N)NC(=O)[C@H](CO)NC3=O)NC(=O)[C@H](CCCCN)NC(=O)[C@H](CC(=O)O)NC(=O)[C@H](CC(N)=O)NC(=O)[C@H](CC(=O)O)NC(=O)[C@@H]2CCCN2C1=O [SEQ ID NO: 244] (H-DCLGFLRKCIPDNDKCCRPNLVCSRTHKWCKYVF-NH2; disulfide 2-17, 9-23, 16-30)	18	6420	26	40	60	–	–
CC[C@H](C)[C@@H]1NC(=O)[C@@H]2CSSC[C@@H]3NC(=O)[C@H](C(C)C)NC(=O)[C@H](CC(C)C)NC(=O)[C@H](CC(N)=O)NC(=O)[C@@H]4CCCN4C(=O)[C@H](CCCNC(=N)N)NC(=O)[C@H](CSSC[C@H](NC(=O)[C@@H](N)CC(=O)O)C(=O)N[C@@H](CC(C)C)C(=O)NCC(=O)N[C@@H](Cc4ccc(I)cc4)C(=O)N[C@@H](CCSC)C(=O)N[C@@H](CCCNC(=N)N)C(=O)N[C@@H](CCCCN)C(=O)N2)NC(=O)[C@H](CSSC[C@@H](C(=O)N[C@@H](CCCCN)C(=O)N[C@@H](Cc2ccc(O)cc2)C(=O)N[C@H](C(=O)N[C@@H](Cc2ccccc2)C(N)=O)C(C)C)NC(=O)[C@H](Cc2c[nH]c4ccccc24)NC(=O)[C@H](CCCCN)NC(=O)[C@H](Cc2c[nH]cn2)NC(=O)[C@H]([C@@H](C)O)NC(=O)[C@H](CCCNC(=N)N)NC(=O)[C@H](CO)NC3=O)NC(=O)[C@H](CCCCN)NC(=O)[C@H](CC(=O)O)NC(=O)[C@H](CC(N)=O)NC(=O)[C@H](CC(=O)O)NC(=O)[C@@H]2CCCN2C1=O [SEQ ID NO: 247]	90	6160	247	20	160	increased potency	–
CC[C@H](C)[C@@H]1NC(=O)[C@@H]2CSSC[C@@H]3NC(=O)[C@H](C(C)C)NC(=O)[C@H](CC(C)C)NC(=O)[C@H](CC(N)=O)NC(=O)[C@@H]4CCCN4C(=O)[C@H](CCCNC(=N)N)NC(=O)[C@H](CSSC[C@H](NC(=O)[C@@H](N)CC(=O)O)C(=O)N[C@@H](CC(C)C)C(=O)NCC(=O)N[C@@H](Cc4ccccc4)C(=O)N[C@@H](CCSC)C(=O)N[C@@H](CCCNC(=N)N)C(=O)N[C@@H](CCCCN)C(=O)N2)NC(=O)[C@H](CSSC[C@@H](C(=O)N[C@@H](CCCCN)C(=O)N[C@@H](Cc2cccc4ccccc24)C(=O)N[C@H](C(=O)N[C@@H](Cc2ccccc2)C(N)=O)C(C)C)NC(=O)[C@H](Cc2c[nH]c4ccccc24)NC(=O)[C@H](CCCCN)NC(=O)[C@H](Cc2cnc[nH]2)NC(=O)[C@H]([C@@H](C)O)NC(=O)[C@H](CCCNC(=N)N)NC(=O)[C@H](CO)NC3=O)NC(=O)[C@H](CCCCN)NC(=O)[C@H](CC(=O)O)NC(=O)[C@H](CC(N)=O)NC(=O)[C@H](CC(=O)O)NC(=O)[C@@H]2CCCN2C1=O [[1-Nal32]GpTx-1(1-34)] (H-DCLGFMRKCIPDNDKCCRPNLVCSRTHKWCK[1Nal]VF-NH2; disulfide 2-17, 9-23, 16-30)	12	–	–	–	–	–	988
CC[C@H](C)[C@@H]1NC(=O)[C@@H]2CSSC[C@@H]3NC(=O)[C@H](C(C)C)NC(=O)[C@H](CC(C)C)NC(=O)[C@H](CC(N)=O)NC(=O)[C@@H]4CCCN4C(=O)[C@H](CCCNC(=N)N)NC(=O)[C@H](CSSC[C@H](NC(=O)[C@@H](N)CC(=O)O)C(=O)N[C@@H](CC(C)C)C(=O)NCC(=O)N[C@@H](Cc4ccccc4)C(=O)N[C@@H](CCSC)C(=O)N[C@@H](CCCNC(=N)N)C(=O)N[C@@H](CCCCN)C(=O)N2)NC(=O)[C@H](CSSC[C@@H](C(=O)N[C@@H](CCCCN)C(=O)N[C@@H](Cc2ccc(O)cc2)C(=O)N[C@H](C(=O)N[C@@H](Cc2ccccc2)C(N)=O)C(C)C)NC(=O)[C@H](Cc2c[nH]c4ccccc24)NC(=O)[C@H](CCCCN)NC(=O)[C@H](Cc2cnc[nH]2)NC(=O)[C@H](CCCNC(=N)N)NC(=O)[C@H](CCCNC(=N)N)NC(=O)[C@H](CO)NC3=O)NC(=O)[C@H](CCCCN)NC(=O)[C@H](CC(=O)O)NC(=O)[C@H](CC(N)=O)NC(=O)[C@H](CC(=O)O)NC(=O)[C@@H]2CCCN2C1=O [[Arg26]GpTx-1(1-34)] (H-DCLGFMRKCIPDNDKCCRPNLVCSRRHKWCKYVF-NH2; disulfide 2-17, 9-23, 16-30)	10	–	–	–	–	–	573
CC[C@H](C)[C@@H]1NC(=O)[C@@H]2CSSC[C@@H]3NC(=O)[C@H](C(C)C)NC(=O)[C@H](CC(C)C)NC(=O)[C@H](CC(N)=O)NC(=O)[C@@H]4CCCN4C(=O)[C@H](CCC(=O)O)NC(=O)[C@H](CSSC[C@H](NC(=O)[C@@H](N)CC(=O)O)C(=O)N[C@@H](CC(C)C)C(=O)NCC(=O)N[C@@H](Cc4ccccc4)C(=O)N[C@@H](CCSC)C(=O)N[C@@H](CCCNC(=N)N)C(=O)N[C@@H](CCCCN)C(=O)N2)NC(=O)[C@H](CSSC[C@@H](C(=O)N[C@@H](CCCCN)C(=O)N[C@@H](Cc2ccc(O)cc2)C(=O)N[C@H](C(=O)N[C@@H](Cc2ccccc2)C(N)=O)C(C)C)NC(=O)[C@H](Cc2c[nH]c4ccccc24)NC(=O)[C@H](CCCCN)NC(=O)[C@H](Cc2cnc[nH]2)NC(=O)[C@H]([C@@H](C)O)NC(=O)[C@H](CCCNC(=N)N)NC(=O)[C@H](CO)NC3=O)NC(=O)[C@H](CCCCN)NC(=O)[C@H](CC(=O)O)NC(=O)[C@H](CC(N)=O)NC(=O)[C@H](CC(=O)O)NC(=O)[C@@H]2CCCN2C1=O [[Glu18]GpTx-1(1-34)] (H-DCLGFMRKCIPDNDKCCEPNLVCSRTHKWCKYVF-NH2; disulfide 2-17, 9-23, 16-30)	98	–	18	–	–	–	–
CC[C@H](C)[C@@H]1NC(=O)[C@@H]2CSSC[C@@H]3NC(=O)[C@H](C(C)C)NC(=O)[C@H](CC(C)C)NC(=O)[C@H](CC(N)=O)NC(=O)[C@@H]4CCCN4C(=O)[C@H](CCCNC(=N)N)NC(=O)[C@H](CSSC[C@H](NC(=O)[C@@H](N)CC(=O)O)C(=O)N[C@@H](CC(C)C)C(=O)NCC(=O)N[C@@H](Cc4ccccc4)C(=O)N[C@@H](CCSC)C(=O)N[C@@H](CCCNC(=N)N)C(=O)N[C@@H](CCCCN)C(=O)N2)NC(=O)[C@H](CSSC[C@@H](C(=O)N[C@@H](CCCCN)C(=O)N[C@@H](Cc2ccc(O)cc2)C(=O)N[C@H](C(=O)N[C@@H](Cc2ccccc2)C(N)=O)C(C)C)NC(=O)[C@H](Cc2c[nH]c4ccccc24)NC(=O)[C@H](CCCCN)NC(=O)[C@H](Cc2cnc[nH]2)NC(=O)[C@H](CCC(=O)O)NC(=O)[C@H](CCCNC(=N)N)NC(=O)[C@H](CO)NC3=O)NC(=O)[C@H](CCCCN)NC(=O)[C@H](CC(=O)O)NC(=O)[C@H](CC(N)=O)NC(=O)[C@H](CC(=O)O)NC(=O)[C@@H]2CCCN2C1=O [[Glu26]GpTx-1(1-34)] (H-DCLGFMRKCIPDNDKCCRPNLVCSREHKWCKYVF-NH2; disulfide 2-17, 9-23, 16-30)	216	–	52	–	–	–	–

Reference: US9340590B2 (priority 2011, dated 2016)
